Laboratory results from PubChem BioAssay (NCI).
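The compound was tested at five concentrations on cells cultured in 96-well plates, with a 48-hour exposure period. The concentration for full growth arrest is given as TGI.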

What was measured:
Test in all cases: DTP human tumour cell line panel, 48 h
MCF7 breast = system: MCF7 breast
OVCAR-4 ovarian = system: OVCAR-4 ovarian
HOP-62 NSCLC = system: HOP-62 NSCLC
MALME-3M melanoma = system: MALME-3M melanoma
A549 NSCLC = system: A549 NSCLC
RPMI-8226 leukemia = system: RPMI-8226 leukemia
OVCAR-8 ovarian = system: OVCAR-8 ovarian
SR leukemia = system: SR leukemia
UACC-257 melanoma = system: UACC-257 melanoma
IGROV1 ovarian = system: IGROV1 ovarian
K-562 leukemia = system: K-562 leukemia
RXF 393 renal = system: RXF 393 renal
KM12 colon = system: KM12 colon
SK-MEL-2 melanoma = system: SK-MEL-2 melanoma
UO-31 renal = system: UO-31 renal
ACHN renal = system: ACHN renal
CCRF-CEM leukemia = system: CCRF-CEM leukemia
OVCAR-5 ovarian = system: OVCAR-5 ovarian
HL-60(TB) leukemia = system: HL-60(TB) leukemia
BT-549 breast = system: BT-549 breast

Compound | TGI (MCF7 breast) | TGI (OVCAR-4 ovarian) | TGI (HOP-62 NSCLC) | TGI (MALME-3M melanoma) | TGI (A549 NSCLC) | TGI (RPMI-8226 leukemia) | TGI (OVCAR-8 ovarian) | TGI (SR leukemia) | TGI (UACC-257 melanoma) | TGI (IGROV1 ovarian) | TGI (K-562 leukemia) | TGI (RXF 393 renal) | TGI (KM12 colon) | TGI (SK-MEL-2 melanoma) | TGI (UO-31 renal) | TGI (ACHN renal) | TGI (CCRF-CEM leukemia) | TGI (OVCAR-5 ovarian) | TGI (HL-60(TB) leukemia) | TGI (BT-549 breast)
C=C(Br)CN(CC(=C)Br)C(C)=O | > 100 µM | > 100 µM | > 100 µM | > 100 µM | > 100 µM | > 100 µM | > 100 µM | > 100 µM | > 100 µM | > 100 µM | > 100 µM | > 100 µM | > 100 µM | > 100 µM | > 100 µM | > 100 µM | > 100 µM | > 100 µM | > 100 µM | 
Cc1ccc(-n2cnc3c(N/N=C4\SCC(=O)N4c4ccccc4)ncnc32)cc1 |  | 21.2 µM | 28.9 µM | 16.3 µM | 29.6 µM |  | 11.8 µM |  | 18.3 µM | 15 µM | > 100 µM | 5.8 µM | 7.88 µM | 8.42 µM | 17.9 µM | 18.6 µM | 4.93 µM | 25.4 µM | 4.29 µM | 14.1 µM
CC(C)=CCC/C(C)=C/Cc1c(O)ccc2c1[nH]c1cc(O)c(C)cc12 |  | 12.1 µM | 23.4 µM | > 25 µM | > 25 µM | > 25 µM | > 25 µM | > 25 µM |  | > 25 µM | > 25 µM | > 25 µM | > 25 µM | > 25 µM | > 25 µM | > 25 µM | > 25 µM | > 25 µM | > 25 µM | 
OC(c1ccccc1)(c1ccccc1)c1cccnc1 |  | > 100 µM | > 100 µM | > 100 µM | > 100 µM | > 100 µM | > 100 µM |  | > 100 µM | > 100 µM | > 100 µM |  | > 100 µM | > 100 µM | > 100 µM | > 100 µM | > 100 µM | > 100 µM |  | 
CC(C)N1CSC(=S)N(Cc2ccccc2)C1 | > 10 µM | > 10 µM | > 10 µM |  | > 10 µM | > 10 µM | > 10 µM | 4.81 µM |  | > 10 µM | > 10 µM | 6.27 µM | > 10 µM |  |  | > 10 µM | > 10 µM |  | 0.652 µM | 
CCOC(CCCN1CCC2(CC1)C(=O)N(C)CN2c1ccccc1)(OCC)c1ccc(F)cc1 | 13.8 µM |  | 14.7 µM | 31.2 µM | 23.9 µM | 29.9 µM | 33.6 µM |  | 18.5 µM | 31.2 µM | 33 µM | 34.6 µM | 29.5 µM |  | 19.8 µM | 28.6 µM | 18.7 µM | 21.6 µM | 30.6 µM | 
O=C1CCc2cc3c(cc21)CC1(Cc2ccccc2C1)C3 | > 100 µM | > 100 µM | > 84.6 µM | > 100 µM | > 100 µM | 25.8 µM | > 100 µM | 5.18 µM | 65.2 µM | > 100 µM | 5.38 µM | > 76.8 µM | > 100 µM | 6.37 µM | > 100 µM | > 91.7 µM | 7.03 µM | > 86.9 µM | 5.26 µM | 
Cc1ccc(NC(=O)CC(=O)n2nc(C)c(N=Nc3ccc(S(=O)(=O)CCOS(=O)(=O)O)cc3)c2C)cc1 | > 100 µM |  | > 100 µM | > 100 µM | > 100 µM | > 100 µM | > 100 µM |  | > 100 µM | > 100 µM | > 100 µM | > 100 µM | > 100 µM | > 100 µM | > 100 µM | > 100 µM | > 100 µM | > 100 µM | > 100 µM | 
Cc1cccc(Nc2cn(CCOc3ccccc3)c(=O)n(CCOc3ccccc3)c2=O)c1 | > 100 µM | > 100 µM | > 100 µM |  | > 100 µM | > 100 µM |  | > 100 µM | > 100 µM | > 100 µM | > 100 µM | > 100 µM | > 100 µM |  | > 100 µM | > 100 µM | > 100 µM | > 100 µM |  | 
CN1CN(c2ccccc2)C2(CCN(CCCC(=O)c3cccs3)CC2)C1=O | 72.6 µM |  | 37.4 µM | > 100 µM | > 100 µM | > 100 µM | > 100 µM | > 100 µM | 90.6 µM | > 100 µM | > 100 µM | > 100 µM | > 100 µM |  | > 100 µM | > 100 µM | > 100 µM | 87.4 µM | > 100 µM | 
CCCCCCCCCCCC1N=C(N)NC(CCCO)=C1C(=O)OC (configuration not stated) |  | 9.15 µM | 8.53 µM | > 62.2 µM | 30.4 µM | 4.78 µM | 6.25 µM | > 100 µM | 11.7 µM | 4.73 µM | 4.49 µM |  | 2.81 µM |  | 38.1 µM | 17.3 µM | 3.79 µM | 16.6 µM | 2.81 µM | 23.1 µM
CC1=CCS(=O)(=O)C1C(O)C1=C(C)CCCC1(C)C (configuration not stated) | > 100 µM | > 100 µM | > 100 µM | > 100 µM | > 100 µM | > 100 µM | > 100 µM |  | > 100 µM | > 100 µM | > 100 µM | > 100 µM | > 100 µM | > 100 µM | > 100 µM | > 100 µM | > 100 µM | > 100 µM | > 100 µM | 
O=C(CC(C(=O)c1ccsc1)c1ccccc1)c1cccs1 (configuration not stated) | 79.6 µM | > 100 µM | > 100 µM |  |  | > 100 µM | > 100 µM | > 100 µM | > 100 µM | > 100 µM | > 100 µM | > 100 µM | 88.6 µM |  | 95.7 µM | > 100 µM | > 100 µM | > 100 µM | > 100 µM | 
